Assay [1] has as its target T1, Kappa-type opioid receptor (Homo sapiens, UniProt P41145). The experiment in a line: Binding constant towards human Opioid receptor kappa 1 was reported.
The target of assay [2] is T1, Kappa-type opioid receptor. The experiment in a line: Binding affinity against opioid receptor kappa 1 from human cloned receptor.
The target of assay [3] is Mu-type opioid receptor (Homo sapiens, UniProt P35372). The experiment in a line: Binding affinity determined against Opioid receptor mu 1 from human cloned receptor.
Sequence of Mu-type opioid receptor (Homo sapiens, UniProt P35372) (P35372 whole entry): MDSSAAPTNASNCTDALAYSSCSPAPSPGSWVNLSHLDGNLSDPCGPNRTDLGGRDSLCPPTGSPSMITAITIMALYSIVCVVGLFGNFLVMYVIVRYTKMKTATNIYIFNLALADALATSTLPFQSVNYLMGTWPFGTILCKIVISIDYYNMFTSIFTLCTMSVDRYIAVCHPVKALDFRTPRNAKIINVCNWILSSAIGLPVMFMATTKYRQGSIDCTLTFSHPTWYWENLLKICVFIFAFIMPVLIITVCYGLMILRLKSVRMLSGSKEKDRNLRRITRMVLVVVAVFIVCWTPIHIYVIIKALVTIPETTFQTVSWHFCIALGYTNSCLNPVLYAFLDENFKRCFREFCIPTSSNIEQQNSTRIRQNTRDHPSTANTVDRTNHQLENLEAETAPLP
In assay [4] the target is Kappa-type opioid receptor (Cavia porcellus, UniProt P41144). As to the kind of experiment: Binding affinity determined against Opioid receptor kappa 1 from a native receptor in guinea pig.
Sequence of Kappa-type opioid receptor (Cavia porcellus, UniProt P41144) (P41144 whole entry): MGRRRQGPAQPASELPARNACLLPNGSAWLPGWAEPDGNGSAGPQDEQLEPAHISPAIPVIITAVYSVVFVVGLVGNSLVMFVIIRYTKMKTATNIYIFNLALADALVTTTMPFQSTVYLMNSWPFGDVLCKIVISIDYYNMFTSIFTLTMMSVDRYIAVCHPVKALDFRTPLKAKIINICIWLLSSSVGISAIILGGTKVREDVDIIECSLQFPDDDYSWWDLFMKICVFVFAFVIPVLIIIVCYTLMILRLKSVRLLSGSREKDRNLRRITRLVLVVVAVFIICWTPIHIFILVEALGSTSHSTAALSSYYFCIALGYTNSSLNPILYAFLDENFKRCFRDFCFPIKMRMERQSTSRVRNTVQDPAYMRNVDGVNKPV
The target of assay [5] is Mu-type opioid receptor (Cavia porcellus, UniProt P97266). As to the kind of experiment: Binding affinity of compound was determined against Opioid receptor mu 1 from native receptor in guinea pig.
Sequence of Mu-type opioid receptor (Cavia porcellus, UniProt P97266) (P97266 whole entry): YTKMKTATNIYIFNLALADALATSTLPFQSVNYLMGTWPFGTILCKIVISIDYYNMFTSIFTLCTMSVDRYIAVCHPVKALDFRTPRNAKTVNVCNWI
Assay [6] deals with Delta-type opioid receptor (Homo sapiens, UniProt P41143).
Sequence of Delta-type opioid receptor (P41143 whole entry): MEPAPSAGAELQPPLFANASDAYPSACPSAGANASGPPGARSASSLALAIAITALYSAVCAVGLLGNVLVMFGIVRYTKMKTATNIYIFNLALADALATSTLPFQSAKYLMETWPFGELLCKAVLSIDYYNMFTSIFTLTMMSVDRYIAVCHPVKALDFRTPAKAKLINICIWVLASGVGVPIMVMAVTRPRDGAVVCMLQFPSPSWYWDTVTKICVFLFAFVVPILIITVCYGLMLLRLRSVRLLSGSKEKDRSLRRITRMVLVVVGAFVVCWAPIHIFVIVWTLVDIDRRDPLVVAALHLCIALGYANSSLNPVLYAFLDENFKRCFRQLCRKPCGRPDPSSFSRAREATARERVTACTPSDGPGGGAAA
Description: Binding affinity determined against Opioid receptor delta 1 from human cloned receptor

Molecules are shown by their SMILES.

T1 sequence (P41145 whole entry): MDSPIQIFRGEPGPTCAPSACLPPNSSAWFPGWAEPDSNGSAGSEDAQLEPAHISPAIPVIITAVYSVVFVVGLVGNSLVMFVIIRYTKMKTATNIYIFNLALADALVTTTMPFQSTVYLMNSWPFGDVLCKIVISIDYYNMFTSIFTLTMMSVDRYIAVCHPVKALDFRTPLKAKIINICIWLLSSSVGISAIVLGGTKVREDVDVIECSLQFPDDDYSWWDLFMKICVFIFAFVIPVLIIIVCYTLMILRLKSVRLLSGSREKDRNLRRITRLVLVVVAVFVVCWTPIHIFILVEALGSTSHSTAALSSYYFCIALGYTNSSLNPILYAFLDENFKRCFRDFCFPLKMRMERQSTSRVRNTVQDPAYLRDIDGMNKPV

For orientation: Ki means a dissociation constant, usually derived from enzyme kinetics or from competition with a known ligand. With `O=C(NCCC1CN=C(c2ccccc2)c2ccccc2N1)c1ccccc1` (configuration not stated), the Ki in assay [1] was 0.251 nM; in assay [2] it was 0.25 nM.
`CN1c2ccc(Cl)cc2C(c2ccccc2)=NCC1CCNC(=O)c1cccs1` (configuration not stated): the results for the Ki (at Mu-type opioid receptor [3]; in assay [2]) were 26.3 nM and 0.7 nM, respectively.
In the case of `CN1c2ccc(Cl)cc2C(c2ccccc2)=NCC1CCNC(=O)c1ccccc1F` (configuration not stated), the Ki in assay [1] was 1.55 nM; in assay [2] it was 1.52 nM.
In the case of `COc1cccc2c1C(c1ccccc1)=NCC(CCNC(=O)c1cccs1)N2C` (configuration not stated), the Ki in assay [1] is 3.8 nM; in assay [4], 116 nM; in assay [2], 3.77 nM.
The matching figures for `O=C(NCCC1CN=C(c2ccccc2)c2ccccc2N1)c1cccs1` (configuration not stated): 0.447 nM, 1.74 nM and 0.45 nM.
Turning to `CN1c2ccccc2C(c2ccccc2)=NCC1CCNC(=O)c1ccc(F)cc1` (configuration not stated), the Ki in assay [1] was 0.302 nM; in assay [2], 0.3 nM.
`CN1c2ccc(Cl)cc2C(c2ccccc2)=NCC1CCNC(=O)c1cc2ccccc2[nH]1` (configuration not stated): the figures for the Ki in assay [1] and in assay [2] were 13.5 nM and 13.6 nM, respectively.
For `CN1c2ccccc2C(c2ccccc2F)=NCC1CCNC(=O)c1ccsc1` (configuration not stated), the inhibition constant (Ki) at Mu-type opioid receptor [5] came out at 1.93 nM; in assay [6] it was 69 nM; in assay [4], 0.78 nM; at Mu-type opioid receptor [3], 3 nM; in assay [2], 0.37 nM.
`CN1c2ccc(Cl)cc2C(c2ccccc2)=NCC1CCNC(=O)c1ccc(F)cc1` (configuration not stated): the Ki in assay [1] and in assay [2] was 0.55 nM throughout.
`CN1c2ccccc2C(c2ccccc2)=NCC1CCNC(=O)c1cccs1` (configuration not stated): the Ki was determined as 9.4 nM on Mu-type opioid receptor [3] and 0.58 nM in assay [2].
For `CN1c2ccccc2C(c2ccccc2)=NC[C@@H]1CCNC(=O)c1cccs1`, the Ki was 0.427 nM in assay [1], 9.2 nM on Mu-type opioid receptor [3] and 0.43 nM in assay [2].
The matching figures for `CN1c2ccc(Cl)cc2C(c2ccccc2)=NC[C@@H]1CCNC(=O)c1cccs1`: 0.692 nM, 27.4 nM and 0.69 nM.
As to `CN1c2ccccc2C(c2ccccc2F)=NC[C@@H]1CCNC(=O)c1ccsc1`, the Ki in assay [1] is 0.17 nM; in assay [6] it was 27.8 nM; on Mu-type opioid receptor [3], 1.5 nM; in assay [2], 0.17 nM.
As for `CN1c2ccccc2C(c2ccccc2)=NC[C@H]1CCNC(=O)c1cccs1`, the values for the Ki (at Mu-type opioid receptor [3]; in assay [2]) were 54.8 nM and 1.28 nM, respectively.
As for `CN1c2ccc(Cl)cc2C(c2ccccc2)=NC[C@H]1CCNC(=O)c1cccs1`, the Ki on Mu-type opioid receptor [3] was 33.2 nM; in assay [2], 0.79 nM.
For `CN1c2ccccc2C(c2ccccc2F)=NC[C@H]1CCNC(=O)c1ccsc1`, the inhibition constant (Ki) in assay [6] was 438 nM; on Mu-type opioid receptor [3], 24.8 nM; in assay [2], 0.71 nM.
Turning to `O=C(NCCC1CN=C(c2ccccc2)c2ccccc2N1)c1ccccc1F` (configuration not stated), the Ki was 0.537 nM in assay [1] and 0.53 nM in assay [2].
The matching figures for `CN1c2ccccc2C(c2ccccc2)=NCC1CCNC(=O)c1ccc([N+](=O)[O-])cc1` (configuration not stated): 0.479 nM and 0.47 nM.
Take `CN(CCC1CN=C(c2ccccc2)c2ccccc2N1C)C(=O)c1cccs1` (configuration not stated): the Ki in assay [1] is 4.37 nM; in assay [4], 25.7 nM; in assay [2] it was 4.34 nM.
Take `CN1c2ccc(Cl)cc2C(c2ccccc2)=NCC1CCNC(=O)c1ccc(Cl)cc1` (configuration not stated): the Ki was 1.32 nM in assay [1] and 1.31 nM in assay [2].
The corresponding values for `O=C(NCCC1CN=C(c2ccccc2)c2ccccc2N1)c1ccc(F)cc1` (configuration not stated) are 0.282 nM and 0.28 nM.
The matching figures for `CN1c2ccccc2C(c2ccccc2)=NCC1CCNC(=O)c1ccccc1F` (configuration not stated): 0.363 nM and 0.36 nM.
As to `Oc1ccc2c3c1O[C@H]1c4[nH]c5ccccc5c4C[C@@]4(O)[C@@H](C2)N(CC2CC2)CC[C@]314` [NALTRINDOLE], the Ki on Mu-type opioid receptor [5] turned out to be 14.7 nM; in assay [4], 10.2 nM.
